Experimental data reported in US20130108562A1, “Cosmetic Composition Containing Oligopeptides” (Cognis IP Management GmbH, priority 2010, published 2013).
Residues, ends and D or L forms follow the SMILES beside them.

Columns and labels:
[1] = tested on: glutaredoxin-2 gene (GLRX2); test: GLRX2 mRNA level by qRT-PCR in human dermal fibroblasts; format: cell-based; conditions: summary of Table 4
Procedure: The peptide Acetyl-Val-Leu-Leu-Lys was incubated on human dermal fibroblasts cultured in vitro and the expression of the glutaredoxin-2 gene (GLRX2), involved in cellular anti-oxidative defenses) was measured using a qRT-PCR method.
The human dermal fibroblasts were cultured within growth medium enriched with FCS at 10% and incubated for 1 day at 37° C. Then the growth medium was exchanged for a standard medium without FCS with or without the Acetyl-Val-Leu-Leu-Lys peptide at 1.0 μg/ml. Cells were incubated for 6 hours at 37° C. before extraction of total RNA. The level of GLRX2 mRNAs was evaluated comparatively to the level of HPRT1 (hypoxanthine phosphoribosyltransferase I) mRNA as housekeeping gene (qRT-PCR method) for each condition.
The results were calculated through the level of GLRX2 mRNA measured in the control condition (without peptide treatment) as 100% and presented as a mean+/−SEM from 3 assays in duplicated.

collagen type I = test: Collagen type I expression by immunocytochemistry in human dermal fibroblasts; format: cell-based
Procedure: The peptide Acetyl-Val-Leu-Leu-Lys was incubated on human dermal fibroblasts cultured in vitro and the expression of the collagen type I was measured using an immunocytochemistry (ICC) method.
The human dermal fibroblasts were cultured within growth medium enriched with Foetal Calf Serum (FCS) at 10% and incubated for 2 days at 37° C. Then the growth medium was exchanged for a standard medium containing sodium ascorbyl at 5 μg/ml with FCS at 1% and with or without the Acetyl-Val-Leu-Leu-Lys peptide at 5.1 mg/ml. A positive control condition with sodium ascorbyl at 20 μg/ml was performed. Cells were incubated for 72 hours at 37° C. with the peptide. Cultured human dermal fibroblasts were fixed by acetone for 10 minutes at −20° C. and incubated for 1 hour at room temperature with a primary antibody against collagen type I [Abcam] diluted at 1/250. Fluorescein isothiocyanate (FITC) labelled secondary antibody [CliniSciences, France] was used for revelation. The obtained immuno-staining was observed using a confocal laser scanning microscope [TCS SPE, Leica, France] and quantified by an image analyzer [Quantimet Q5001W, Leica, France]. The staining occupation was evaluated. The results were presented as a mean+/−SEM (Standard Error of Mean) from 6 measures.

tropoelastin gene (ELN) = test: ELN mRNA level by qRT-PCR in human dermal fibroblasts; format: cell-based; conditions: summary of Table 3
Procedure: The peptide Acetyl-Val-Leu-Leu-Lys was incubated on human dermal fibroblasts cultured in vitro and the expression of the tropoelastin gene (ELN) was measured using a qRT-PCR method.
The human dermal fibroblasts were cultured within growth medium enriched with FCS at 10% and incubated for 1 day at 37° C. Then the growth medium was exchanged for a standard medium without FCS but with or without the Acetyl-Val-Leu-Leu-Lys peptide at 1.0 μg/ml. Cells were incubated for 24 hours, 48 hours or 72 hours at 37° C. before extraction of total RNA. The level of ELN mRNAs in the different conditions was evaluated comparatively to the level of EEF1A 1 mRNA as housekeeping gene (qRT-PCR method) for each condition. The results were calculated through the level of ELN mRNA measured in the control condition (without peptide treatment) as 100% and presented as a mean+/−SEM from 3 assays in duplicate.

[2] = tested on: collagen type XIV gene (COL14A1); test: COL14A1 mRNA level by qRT-PCR in human dermal fibroblasts; format: cell-based; conditions: summary of Table 2
Procedure: The peptide Acetyl-Val-Leu-Leu-Lys was incubated on human dermal fibroblasts cultured in vitro and the expression of the collagen type XIV gene (COL14A1) was measured using a quantitative reverse-transcription and polymerase chain reaction (qRT-PCR) method.
The human dermal fibroblasts were cultured within growth medium enriched with FCS at 10% and incubated for 1 day at 37° C. Then the growth medium was exchanged for a standard medium without FCS but with or without the Acetyl-Val-Leu-Leu-Lys peptide at 1.0 μg/ml. Cells were then incubated for 24 hours, 48 hours or 72 hours at 37° C. before extraction of total RNA. The level of COL14A1 mRNAs in the different conditions was evaluated comparatively to the level of EEF1A1 mRNA as housekeeping gene (qRT-PCR method) for each condition.
The results were calculated through the level of COL14A1 mRNA measured in the control condition (without peptide treatment) for the different incubation times as 100% and presented as a mean+/−SEM from 3 or 5 assays in duplicate.

[3] = tested on: epithelial cells from rabbit cornea; conditions: Hara et al., Exp Eye Res, 2001; cited from earlier work
injured rabbit cornea = conditions: Hara et al., Exp Eye Res, 2001; cited from earlier work

**Q.** Which results are given for `CC(=O)N[C@H](C(=O)N[C@@H](CC(C)C)C(=O)N[C@@H](CC(C)C)C(=O)N[C@@H](CCCCN)C(=O)O)C(C)C` [Acetyl-Val-Leu-Leu-Lys, N-Acetyl-Val-Leu-Leu-Lys-OH] (Ac-VLLK-OH)?
**A.** effect on level of GLRX2 gene expression (in words) [1]: specifically increased the level of GLRX2 gene expression; effect on level of collagen type I (in words) (collagen type I; summary of Table 1): significantly increased the level of collagen type I; effect on level of ELN gene expression (in words) (tropoelastin gene (ELN)): specifically and significantly increased the level of ELN gene expression; effect on level of COL14A1 gene expression (in words) [2]: specifically and significantly increased the level of COL14A1 gene expression

**Q.** With “Val-Leu-Leu-His (VLLH; printed: Val-Leu-Leu-His)” as the compound, how does the “proliferation of epithelial cells from rabbit cornea (in words)” value [3] read?
**A.** stimulate proliferation of epithelial cells from rabbit cornea

**Q.** And the “wound healing activity on injured rabbit cornea (in words)” value (injured rabbit cornea)?
**A.** significant wound healing activity on injured rabbit cornea

**Q.** For sodium ascorbyl [reference compound], which “% of staining occupation (collagen type I immuno-staining)” value (collagen type I; positive control at 20 μg/ml, 72 hours, human dermal fibroblasts, mean +/− SEM from 6 measures, control 10.68 +/− 1) is on record?
**A.** 18.01 +/− 1.07 (**) %
